The source of these data is PubChem BioAssay AID330 (DTP/NCI, 2004).

This assay concerns P388 leukemia ip, CD2F1 mice, survival T/C. As to the kind of experiment: NCI In Vivo Anticancer Drug Screen. Data for tumor model P388 Leukemia (intraperitoneal) in CD2F1 (CDF1) mice. The following applies: endpoint: median survival time, higher = longer survival. The essentials: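 Mice carrying the transplanted tumor received test compound or vehicle. Survival was recorded in each group, and the value is the treated-group measurement divided by that of the vehicle-treated control group.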

Setting [1] is: dose: 50.0 mg/kg/injection, schedule: Q01DX009 (ip), vehicle: saline with Tween-80.
[2] abbreviates: dose: 100.0 mg/kg/injection, schedule: Q01DX009 (ip), vehicle: saline with Tween-80.
The mark [3] stands for this setting: dose: 200.0 mg/kg/injection, schedule: Q01DX009 (ip), vehicle: saline with Tween-80.
Setting [4] is: dose: 15.0 mg/kg/injection, schedule: Q01DX005 (ip), vehicle: saline with Tween-80.
[5] abbreviates: dose: 30.0 mg/kg/injection, schedule: Q01DX005 (ip), vehicle: saline with Tween-80.
Where [6] appears, read: dose: 240.0 mg/kg/injection, schedule: Q01DX005 (ip), vehicle: saline with Tween-80.
The mark [7] stands for this setting: dose: 60.0 mg/kg/injection, schedule: Q01DX005 (ip), vehicle: saline with Tween-80.
[8] abbreviates: dose: 120.0 mg/kg/injection, schedule: Q01DX005 (ip), vehicle: saline with Tween-80.
[9] abbreviates: dose: 25.0 mg/kg/injection, schedule: Q01DX005 (ip), vehicle: Klucel (hydroxypropylcellulose) (HPC).
[10] abbreviates: dose: 50.0 mg/kg/injection, schedule: Q01DX005 (ip), vehicle: Klucel (hydroxypropylcellulose) (HPC).
[11] abbreviates: dose: 100.0 mg/kg/injection, schedule: Q01DX005 (ip), vehicle: Klucel (hydroxypropylcellulose) (HPC).
[12] abbreviates: dose: 200.0 mg/kg/injection, schedule: Q01DX005 (ip), vehicle: Klucel (hydroxypropylcellulose) (HPC).

Values joined by “and” are separate entries in the source; they are usually repeats but may differ in a detail not shown here. Equal values may be shown once. Toxic doses and inconclusive results are not listed.

In the case of `Cc1oc(-c2ccccc2F)nc1C(N)=O`, the T/C is 96 % of control under setting [1], 95 % of control under setting [2] and 91 % of control under setting [3].

As to `NS(=O)(=O)c1ccc(Nc2c3ccccc3nc3c([N+](=O)[O-])cccc23)cc1`, the T/C was 97 % of control under setting [4], 90 % of control under setting [5] and 88 % of control under setting [6].

`Nc1ccccc1C(=O)Nc1ccc(Cl)cc1C(=O)O`: the T/C runs as follows: (dose: 50.0 mg/kg/injection, schedule: Q01DX009 (ip), vehicle: saline) 101 % of control; (dose: 100.0 mg/kg/injection, schedule: Q01DX009 (ip), vehicle: saline) 106 % of control.

For `O=[N+]([O-])c1ccc2nc3ccccc3cc2c1`, the T/C by setting is: (dose: 50.0 mg/kg/injection, schedule: Q04DX003 (ip), vehicle: saline) 112 % of control; (dose: 100.0 mg/kg/injection, schedule: Q04DX003 (ip), vehicle: saline) 96 % of control; (dose: 200.0 mg/kg/injection, schedule: Q04DX003 (ip), vehicle: saline) 96 % of control; (dose: 400.0 mg/kg/injection, schedule: Q04DX003 (ip), vehicle: saline) 93 % of control.

For `N=C(N)N`, the T/C by setting is: under setting [1], 100 % of control; under setting [2], 100 % of control.

Turning to `Cc1cc(-c2nc(-c3cc(C)c(O)c(C)c3)nc(-c3cc(C)c(O)c(C)c3)n2)cc(C)c1O`, the T/C (dose: 50.0 mg/kg/injection, schedule: Q04DX003 (ip), vehicle: Klucel (hydroxypropylcellulose) (HPC)) was 100 % of control; the T/C (dose: 100.0 mg/kg/injection, schedule: Q04DX003 (ip), vehicle: Klucel (hydroxypropylcellulose) (HPC)) was 106 % of control; the T/C (dose: 200.0 mg/kg/injection, schedule: Q04DX003 (ip), vehicle: Klucel (hydroxypropylcellulose) (HPC)) was 105 % of control.

With `FC(F)(F)c1cccc(N=c2ccn3ccccc3c2)c1`, the T/C runs as follows: (dose: 12.5 mg/kg/injection, schedule: Q01DX009 (ip), vehicle: saline with Tween-80) 103 % of control; (dose: 25.0 mg/kg/injection, schedule: Q01DX009 (ip), vehicle: saline with Tween-80) 96 % of control; under setting [1], 91 % of control and 94 % of control.

As for `O=C1NCC(COc2ccc([N+](=O)[O-])cc2)O1` (stereo unspecified), the T/C (dose: 60.0 mg/kg/injection, schedule: Q01DX005 (ip), vehicle: Klucel (hydroxypropylcellulose) (HPC)) is 109 % of control; the T/C (dose: 120.0 mg/kg/injection, schedule: Q01DX005 (ip), vehicle: Klucel (hydroxypropylcellulose) (HPC)) is 90 % of control; the T/C (dose: 240.0 mg/kg/injection, schedule: Q01DX005 (ip), vehicle: Klucel (hydroxypropylcellulose) (HPC)) was 93 % of control.

Turning to `CCCCCCC(=O)/C=C/c1ccccc1OC(=O)/C=C/c1ccccc1`, the T/C is 96 % of control (dose: 50.0 mg/kg/injection, schedule: Q01DX005 (ip), vehicle: saline + alcohol) and 92 % of control (dose: 100.0 mg/kg/injection, schedule: Q01DX005 (ip), vehicle: saline + alcohol).

Take `COc1ccc(OC)c(NC(=O)C2=C(C)NC(C)=C(C(=O)Nc3cc(OC)ccc3OC)C2c2cccc([N+](=O)[O-])c2)c1`: the T/C reads like this: (dose: 7.5 mg/kg/injection, schedule: Q01DX005 (ip), vehicle: Klucel (hydroxypropylcellulose) (HPC)) 101 % of control; (dose: 15.0 mg/kg/injection, schedule: Q01DX005 (ip), vehicle: Klucel (hydroxypropylcellulose) (HPC)) 94 % of control; (dose: 30.0 mg/kg/injection, schedule: Q01DX005 (ip), vehicle: Klucel (hydroxypropylcellulose) (HPC)) 92 % of control.

As to `CCCCCCCCCCC(Nc1nncs1)Nc1nncs1`, the T/C was 96 % of control under setting [7], 95 % of control under setting [8] and 95 % of control under setting [6].

On to `[S]=[W]=[S]`, for which the T/C under setting [1] is 98 % of control, the T/C under setting [2] is 102 % of control and the T/C under setting [3] was 96 % of control.

On to `N=Cc1cc([N+](=O)[O-])ccc1O`, for which the T/C is, setting by setting: under setting [7], 105 % of control; under setting [8], 104 % of control.

As to `CNC(=O)N(C)N=NCCCl`, the T/C is 175 % of control (dose: 50.0 mg/kg/injection, schedule: Q01DX005 (ip), vehicle: saline with Tween-80); 161 % of control (dose: 52.5 mg/kg/injection, schedule: Q01DX005 (ip), vehicle: saline with Tween-80); 196 % of control (dose: 100.0 mg/kg/injection, schedule: Q01DX005 (ip), vehicle: saline with Tween-80); 181 % of control (dose: 105.0 mg/kg/injection, schedule: Q01DX005 (ip), vehicle: saline with Tween-80); 297 % of control (dose: 200.0 mg/kg/injection, schedule: Q01DX005 (ip), vehicle: saline with Tween-80); 297 % of control (dose: 210.0 mg/kg/injection, schedule: Q01DX005 (ip), vehicle: saline with Tween-80). Also, for the setting “dose: 400.0 mg/kg/injection, schedule: Q01DX005 (ip), vehicle: saline with Tween-80”, the T/C was 99 % of control.

As for `C=CC(C(=C)C(=O)OC)c1ccccc1` (stereo unspecified), the T/C reads like this: (dose: 60.0 mg/kg/injection, schedule: Q01DX005 (ip), vehicle: saline) 100 % of control; (dose: 120.0 mg/kg/injection, schedule: Q01DX005 (ip), vehicle: saline) 109 % of control; (dose: 240.0 mg/kg/injection, schedule: Q01DX005 (ip), vehicle: saline) 103 % of control.

In the case of `COc1cccc2c1C(=O)c1c(O)c3c(c(O)c1C2=O)C[C@@](O)(/C=N\O)C[C@@H]3OC1CC(N)C(O)C(C)O1` (stereo partly specified), the T/C runs as follows: (dose: 3.13 mg/kg/injection, schedule: Q04DX003 (ip), vehicle: water) 109 % of control; (dose: 6.25 mg/kg/injection, schedule: Q04DX003 (ip), vehicle: water) 118 % of control; (dose: 12.5 mg/kg/injection, schedule: Q04DX003 (ip), vehicle: water) 116 % of control; (dose: 25.0 mg/kg/injection, schedule: Q04DX003 (ip), vehicle: water) 111 % of control; (dose: 50.0 mg/kg/injection, schedule: Q04DX003 (ip), vehicle: water) 163 % of control.

Take `CN1C=C(C#N)CCC1Sc1ccc(Cl)cc1` (stereo unspecified): the T/C is, setting by setting: under setting [7], 105 % of control; under setting [8], 103 % of control; under setting [6], 104 % of control.

For the compound `CCOC(=O)C(C(C)=O)C(c1cc(OC)c(OC)c(OC)c1)c1cc2c(cc1O)OCO2` (stereo unspecified), the T/C is 95 % of control under setting [4]; 90 % of control under setting [5]; 89 % of control and 92 % of control under setting [7]; 100 % of control and 93 % of control under setting [8].

As to `CCCCCCCCCCCCCCCCCCCCCC(O)(CC)CC`, the T/C is 100 % of control under setting [2]; 100 % of control (dose: 100.0 mg/kg/injection, schedule: Q04DX003 (ip), vehicle: saline with Tween-80); 109 % of control under setting [3]; 100 % of control (dose: 200.0 mg/kg/injection, schedule: Q04DX003 (ip), vehicle: saline with Tween-80); 100 % of control (dose: 400.0 mg/kg/injection, schedule: Q01DX009 (ip), vehicle: saline with Tween-80); 110 % of control (dose: 400.0 mg/kg/injection, schedule: Q04DX003 (ip), vehicle: saline with Tween-80).

Turning to `c1ccc2c(c1)oc1cc3c(cc12)nnc1cccn13`, the T/C under setting [9] was 100 % of control, the T/C under setting [10] was 96 % of control, the T/C under setting [11] is 92 % of control and the T/C under setting [12] is 86 % of control.

As to `O=C(Oc1ccccc1)c1ccc([N+](=O)[O-])cc1`, the T/C under setting [9] was 100 % of control, the T/C under setting [10] is 105 % of control, the T/C under setting [11] was 101 % of control and the T/C under setting [12] was 104 % of control.

In the case of `CCOC(CN(C)C)C(Cl)(Cl)Cl` (stereo unspecified), the T/C by setting is: (dose: 25.0 mg/kg/injection, schedule: Q01DX009 (ip), vehicle: Klucel (hydroxypropylcellulose) (HPC)) 103 % of control; (dose: 50.0 mg/kg/injection, schedule: Q01DX009 (ip), vehicle: Klucel (hydroxypropylcellulose) (HPC)) 103 % of control; (dose: 100.0 mg/kg/injection, schedule: Q01DX009 (ip), vehicle: Klucel (hydroxypropylcellulose) (HPC)) 88 % of control; (dose: 200.0 mg/kg/injection, schedule: Q01DX009 (ip), vehicle: Klucel (hydroxypropylcellulose) (HPC)) 108 % of control.
